Reference: article PMC11995724, “Antibiotic target discovery by integrated phenotypic and activity-based profiling of electrophilic fragments” (Cell chemical biology, 2025)

Experiment: in vitro
Conditions: human, hek293t cells
Method: Mammalian cytotoxicity measurement was performed using Cell Titer-Glo 2.0 Cell Viability Assay (Promega, G9243) according to the manufacturer protocol. In brief, mammalian cells were seeded into 384-well white plates (Greiner, 781080) and incubated at 37°C for one day. Compounds from the Cys-Library were dispensed into the assay plate using epMotion 96. The plates were then incubated at 37°C for two days. An equal volume of Cell Titer-Glo 2.0 reagent was added into each well of the assay plate using epMotion 96 and incubated at 22°C for 10 min, followed by luminescence measurement using a Cytation 5 plate reader (BioTek).

Row | SMILES | viability at 48 h, 25 µM [%]
1 | N#CC(=Cc1cccs1)C(=O)Nc1cccc2ncccc12 [8-D20, 2-cyano-N-(quinolin-5-yl)-3-(thiophen-2-yl)prop-2-enamide] | 84.3
2 | Cc1ccc(C=C(C#N)C(=O)NC(N)=O)o1 [8-D21, {2-cyano-2-[(5-methylfuran-2-yl)methylidene]acetyl}urea] | 101
3 | Cc1ccsc1C=C(C#N)C(=O)Nc1c(Cl)cccc1Cl [8-D22, 2-cyano-N-(2,6-dichlorophenyl)-3-(3-methylthiophen-2-yl)prop-2-enamide] | 78.5
4 | N#CC(=Cc1ccc(OC(F)F)cc1)C(=O)N1CCCc2ccccc21 [8-E03, 3-[4-(difluoromethoxy)phenyl]-2-(1,2,3,4-tetrahydroquinoline-1-carbonyl)prop-2-enenitrile] | 64.6
5 | Cc1ccc(C=C(C#N)C(=O)Nc2ccc(C(=O)O)cc2)s1 [8-E04, 4-[2-cyano-3-(5-methylthiophen-2-yl)prop-2-enamido]benzoic acid] | 91.5
6 | CCNC(=O)C(C#N)=Cc1ccc(OC(F)F)cc1 [8-E05, 2-cyano-3-[4-(difluoromethoxy)phenyl]-N-ethylprop-2-enamide] | 81.4
7 | CN(C)c1ccc(C=C(C#N)C(=O)Nc2nccs2)cc1 [8-E06, 2-cyano-3-[4-(dimethylamino)phenyl]-N-(1,3-thiazol-2-yl)prop-2-enamide] | 75.1
8 | CC1CCCCC1NC(=O)C(C#N)=Cc1cccc(O)c1 (centres unmarked) [8-E07, 2-cyano-3-(3-hydroxyphenyl)-N-(2-methylcyclohexyl)prop-2-enamide] | 45.1
9 | Cc1n[nH]c(C)c1C=C(C#N)C(=O)Nc1ccc(SC(F)F)cc1 [8-E08, 2-cyano-N-{4-[(difluoromethyl)sulfanyl]phenyl}-3-(3,5-dimethyl-1H-pyrazol-4-yl)prop-2-enamide] | 78.2
10 | C=CCNC(=O)C(C#N)=Cc1ccccc1[N+](=O)[O-] [8-E09, 2-cyano-3-(2-nitrophenyl)-N-(prop-2-en-1-yl)prop-2-enamide] | 109
11 | N#CC(=Cc1cc(F)ccc1F)C(=O)Nc1ccc(F)cc1 [8-E10, 2-cyano-3-(2,5-difluorophenyl)-N-(4-fluorophenyl)prop-2-enamide] | 87.5
12 | COc1ccccc1NC(=O)C(C#N)=Cc1ccccc1F [8-E11, 2-cyano-3-(2-fluorophenyl)-N-(2-methoxyphenyl)prop-2-enamide] | 67.4
13 | Cc1ccc(C=C(C#N)C(=O)NC2CCCC2)cc1C [8-E12, 2-cyano-N-cyclopentyl-3-(3,4-dimethylphenyl)prop-2-enamide] | 54.9
14 | Cc1cc(C)c(NC(=O)C(C#N)=Cc2ccccc2C)c(C)c1 [8-E13, 2-cyano-3-(2-methylphenyl)-N-(2,4,6-trimethylphenyl)prop-2-enamide] | 37.8
15 | Cc1cc(C=C(C#N)C(=O)Nc2ccccc2)c(C)n1C1CC1 [8-E14, 2-cyano-3-(1-cyclopropyl-2,5-dimethyl-1H-pyrrol-3-yl)-N-phenylprop-2-enamide] | 91.7
16 | N#CC(=Cc1ccccc1)C(=O)Nc1ccc(N2CCCCC2)cc1 [8-E15, 2-cyano-3-phenyl-N-[4-(piperidin-1-yl)phenyl]prop-2-enamide] | 64.7
17 | Cc1ccc(C=C(C#N)C(=O)Nc2ccccc2C(F)(F)F)cc1 [8-E16, 2-cyano-3-(4-methylphenyl)-N-[2-(trifluoromethyl)phenyl]prop-2-enamide] | 96.3
18 | Cc1ccc(C=C(C#N)C(=O)N2CCCC2)cc1 [8-E17, 3-(4-methylphenyl)-2-(pyrrolidine-1-carbonyl)prop-2-enenitrile] | 75.4
19 | COc1ccccc1NC(=O)C(C#N)=Cc1ccc(F)cc1 [8-E18, 2-cyano-3-(4-fluorophenyl)-N-(2-methoxyphenyl)prop-2-enamide] | 81
20 | Cc1cc(C)c(NC(=O)C(C#N)=Cc2ccccc2)c(C)c1 [8-E19, 2-cyano-3-phenyl-N-(2,4,6-trimethylphenyl)prop-2-enamide] | 29.4
21 | N#CC(=CNc1ccc(F)cc1)C(=O)NCc1ccccc1 [8-E20, N-benzyl-2-cyano-3-[(4-fluorophenyl)amino]prop-2-enamide] | 98.3
22 | C=CCNC(=O)C(C#N)=Cc1ccc(OC)c(O)c1 [8-E21, 2-cyano-3-(3-hydroxy-4-methoxyphenyl)-N-(prop-2-en-1-yl)prop-2-enamide] | 75.7
23 | Cc1c(C=C(C#N)C(=O)NCC2(c3ccccc3)CC2)cc(C#N)n1C [8-E22, 2-cyano-3-(5-cyano-1,2-dimethyl-1H-pyrrol-3-yl)-N-[(1-phenylcyclopropyl)methyl]prop-2-enamide] | 79.4
24 | N#CC(=Cc1ccccc1Cl)C(=O)Nc1ccc2c(c1)OCCO2 [8-F03, 3-(2-chlorophenyl)-2-cyano-N-(2,3-dihydro-1,4-benzodioxin-6-yl)prop-2-enamide] | 94.9
25 | N#CC(=Cc1cc(C#N)cs1)C(=O)NC(N)=O [8-F04, {2-cyano-2-[(4-cyanothiophen-2-yl)methylidene]acetyl}urea] | 85.8

Row | SMILES | viability at 48 h, 25 µM [%]
26 | N#CC(=Cc1ccccc1OCc1ccccc1)C(=O)NC(N)=O [8-F05, (2-{[2-(benzyloxy)phenyl]methylidene}-2-cyanoacetyl)urea] | 84.9
27 | COc1cccc(NC(=O)C(C#N)=Cc2cccc(Cl)c2Cl)c1 [8-F06, 2-cyano-3-(2,3-dichlorophenyl)-N-(3-methoxyphenyl)prop-2-enamide] | 29.8
28 | N#CC(=Cc1ccc(O)c(O)c1)C(=O)Nc1cccc(Cl)c1Cl [8-F07, 2-cyano-N-(2,3-dichlorophenyl)-3-(3,4-dihydroxyphenyl)prop-2-enamide] | 77.6
29 | CC(=Cc1ccccc1)C=C(C#N)C(=O)Nc1nccs1 [8-F08, 2-cyano-4-methyl-5-phenyl-N-(1,3-thiazol-2-yl)penta-2,4-dienamide] | 84.2
30 | COc1ccc(NC(=O)C(C#N)=Cc2cccc(O)c2)cc1OC [8-F09, 2-cyano-N-(3,4-dimethoxyphenyl)-3-(3-hydroxyphenyl)prop-2-enamide] | 86.1
31 | N#CC(=Cc1cccs1)C(=O)Nc1ccc(F)cc1 [8-F10, 2-cyano-N-(4-fluorophenyl)-3-(thiophen-2-yl)prop-2-enamide] | 102
32 | Cc1ccc(NC(=O)C(C#N)=Cc2cccc(F)c2)cc1 [8-F11, 2-cyano-3-(3-fluorophenyl)-N-(4-methylphenyl)prop-2-enamide] | 85.7
33 | CC1CCCCC1NC(=O)C(C#N)=CC=Cc1ccccc1[N+](=O)[O-] (centres unmarked) [8-F12, 2-cyano-N-(2-methylcyclohexyl)-5-(2-nitrophenyl)penta-2,4-dienamide] | 36
34 | COc1ccc(C=C(C#N)C(=O)Nc2cccc3c2C(=O)NC3=O)cc1 [8-F13, 2-cyano-N-(1,3-dioxo-2,3-dihydro-1H-isoindol-4-yl)-3-(4-methoxyphenyl)prop-2-enamide] | 119
35 | N#CC(=Cc1ccc(OC(F)F)cc1)C(=O)Nc1nccs1 [8-F14, 2-cyano-3-[4-(difluoromethoxy)phenyl]-N-(1,3-thiazol-2-yl)prop-2-enamide] | 113
36 | COc1cc(C=C(C#N)C(=O)NC(C)C)cc(OC)c1 [8-F15, 2-cyano-3-(3,5-dimethoxyphenyl)-N-(propan-2-yl)prop-2-enamide] | 82.4
37 | N#CC(=Cc1cccc([N+](=O)[O-])c1)C(=O)NCc1ccc(Cl)cc1 [8-F16, N-[(4-chlorophenyl)methyl]-2-cyano-3-(3-nitrophenyl)prop-2-enamide] | 0.958
38 | Cn1ccc(NC(=O)C(C#N)=Cc2ncccc2C(F)(F)F)n1 [8-F17, 2-cyano-N-(1-methyl-1H-pyrazol-3-yl)-3-[3-(trifluoromethyl)pyridin-2-yl]prop-2-enamide] | 95.2
39 | Cc1cccc(C=C(C#N)C(=O)NC(C)c2ccccc2)c1 (centres unmarked) [8-F18, 2-cyano-3-(3-methylphenyl)-N-(1-phenylethyl)prop-2-enamide] | 36.3
40 | N#CC(=CC=Cc1ccccc1[N+](=O)[O-])C(N)=O [8-F19, 2-cyano-5-(2-nitrophenyl)penta-2,4-dienamide] | 1.55
41 | N#CC(=Cc1ccc(-c2ccccc2Cl)o1)C(=O)N1CCCCC1 [8-F20, 3-[5-(2-chlorophenyl)furan-2-yl]-2-(piperidine-1-carbonyl)prop-2-enenitrile] | 66.6
42 | N#CC(=Cc1cc([N+](=O)[O-])ccc1Cl)C(N)=O [8-F21, 3-(2-chloro-5-nitrophenyl)-2-cyanoprop-2-enamide] | 101
43 | N#CC(=Cc1cc2c(cc1[N+](=O)[O-])OCO2)C(=O)NC1CCCCC1 [8-F22, 2-cyano-N-cyclohexyl-3-(6-nitro-1,3-dioxaindan-5-yl)prop-2-enamide] | 87.7
44 | COc1ccc(C=C(C#N)C(=O)Nc2ccccc2[N+](=O)[O-])cc1 [8-G03, 2-cyano-3-(4-methoxyphenyl)-N-(2-nitrophenyl)prop-2-enamide] | 96.8
45 | CCc1ccc(NC(=O)C(C#N)=Cc2cccnc2)cc1 [8-G04, 2-cyano-N-(4-ethylphenyl)-3-(pyridin-3-yl)prop-2-enamide] | 86.1
46 | CC1CN(C(=O)C(C#N)=Cc2ccc(OC(F)F)cc2)CC(C)O1 (centres unmarked) [8-G05, 3-[4-(difluoromethoxy)phenyl]-2-(2,6-dimethylmorpholine-4-carbonyl)prop-2-enenitrile] | 97.8
47 | Cc1c(C=C(C#N)C(=O)Nc2ccccn2)cc(C#N)n1C [8-G06, 2-cyano-3-(5-cyano-1,2-dimethyl-1H-pyrrol-3-yl)-N-(pyridin-2-yl)prop-2-enamide] | 94.1
48 | Cc1ccsc1C=C(C#N)C(=O)NC1CCCCC1C (centres unmarked) [8-G07, 2-cyano-N-(2-methylcyclohexyl)-3-(3-methylthiophen-2-yl)prop-2-enamide] | 61.1
49 | N#CC(=Cc1cc(F)ccc1F)C(=O)NC1CCCCC1 [8-G08, 2-cyano-N-cyclohexyl-3-(2,5-difluorophenyl)prop-2-enamide] | 9.88
50 | COc1ccc(C=C(C#N)C(=O)Nc2ccccc2OC)cc1 [8-G09, 2-cyano-N-(2-methoxyphenyl)-3-(4-methoxyphenyl)prop-2-enamide] | 80.4
